Experimental data from US10738057B2, “Tertiary alcohols as PI3K-γ inhibitors” (Incyte Corporation, priority 2017, dated 2020).
Counter-ions that a name gives are not always drawn. Like-named read-outs stand apart in the source and are kept apart here.

Experiments:
[1] = tested on: Phosphorylated Ribosomal Protein S6 (RPS6) in THP-1 cells; assay: THP-1 RPS6 ELISA assay; type: cell-based, Human
Protocol: Example A. THP-1 RPS6 ELISA Assay
To measure the Phosphorylated Ribosomal Protein S6 (RPS6) in cell lysates, THP-1 cells (Human Acute Monocytic Leukemia) are purchased from ATCC (Manassas, Va.) and maintained in RPMI with 10% FBS (Gibco/Life Technologies, Carlsbad, Calif.). For the assay, THP-1 cells are serum starved overnight in RPMI, then plated in RPMI (2×10^5 cells/well in 90 μL) into 96-well flat-bottom tissue culture treated plates (Corning, Corning, N.Y.), in the presence or absence of a concentration range of test compounds. Covered plates are incubated for 2 hours at 37° C., 5% CO2 then treated with or without 10 nM MCP-1 (MYBioSource, San Diego, Calif.) for 15 minutes at 37° C., 5% CO2. Plates are centrifuged at 1600 RPM and supernatants are removed. Cells are lysed in Lysis Buffer (Cell Signaling, Danvers, Mass.) with Protease Inhibitor (Calbiochem/EMD, Germany), PMSF (Sigma, St Louis Mo.), HALTS (Thermo Fisher, Rockford, Ill.) for 30 min on wet ice. Cell lysates are frozen at −80° C. before testing. The lysates are tested in the Human/Mouse/Rat Phospho-RPS6 ELISA (R&D Systems, Inc. Minn, Minn.). The plate is measured using a microplate reader (SpectraMax M5—Molecular Devices, LLC Sunnyvale, Calif.) set to 450 nm with a wavelength correction of 540. IC50 determination is performed by fitting the curve of inhibitor percent inhibition versus the log of the inhibitor concentration using the GraphPad Prism 5.0 software.

[2] = molecular target: PI3Kδ (p110δ/p85α) Recombinant Human Protein (Homo sapiens (Human), UniProt O00329); assay: PI3Kδ scintillation proximity assay; type: biochemical; conditions: 20 μM PIP2, 2 μM ATP, 3.4 nM PI3Kδ, 120 min, room temperature; read-out: PI3Kδ IC50
Protocol: PI3Kδ Scintillation Proximity Assay
[γ-^33P]ATP (10 mCi/mL) and Wheat Germ Agglutinin (WGA) YSi SPA Scintillation Beads was purchased from PerkinElmer (Waltham, Mass.). […] PI3Kδ (p110δ/p85α) Recombinant Human Protein was purchased from Eurofins (St Charles, Mo.). ATP, MgCl2, DTT, EDTA, MOPS and CHAPS were purchased from SigmaAldrich (St. Louis, Mo.).
The kinase reaction was conducted in polystyrene 384-well Greiner Bio-one white plate from Thermo Fisher Scientific in a final volume of 25 μL. Inhibitors were first diluted serially in DMSO and added to the plate wells before the addition of other reaction components. The final concentration of DMSO in the assay was 2%. The PI3Kδ assay was carried out at room temperature in 20 mM MOPS, pH 6.7, 10 mM MgCl2, 5 mM DTT and CHAPS 0.03%. Reactions were initiated by the addition of ATP, the final reaction mixture consisted of 20 μM PIP2, 2 μM ATP, 0.5 μCi [γ-^33P] […] The final concentration of SPA beads is 1.0 mg/mL. After the plate sealing, plates were shaken overnight at room temperature and centrifuged at 1500 rpm for 10 min, the radioactivity of the product was determined by scintillation counting on Topcount (PerkinElmer). IC50 determination was performed by fitting the curve of percent of the solvent control activity versus the log of the inhibitor concentration using the GraphPad Prism 6.0 software.

[3] = molecular target: PI3Kγ (p110γ) Recombinant Human Protein (Homo sapiens (Human), UniProt P48736); assay: PI3K-γ scintillation proximity assay; type: biochemical; conditions: 20 μM PIP2, 2 μM ATP, 13 nM PI3Kγ, 120 min, room temperature
Description: Example B. PI3K-γ Scintillation Proximity Assay
[γ-^33P]ATP (10 mCi/mL) and Wheat Germ Agglutinin (WGA) YSi SPA Scintillation Beads was purchased from PerkinElmer (Waltham, Mass.). Lipid kinase substrate, D-myo-Phosphatidylinositol 4,5-bisphosphate (PtdIns(4,5)P2)D (+)-sn-1,2-di-O-octanoylglyceryl, 3-O-phospho linked (PIP2), CAS 204858-53-7, was purchased from Echelon Biosciences (Salt Lake City, Utah). PI3Kγ (p110γ) Recombinant Human Protein was purchased from Life technology (Grand Island, N.Y.). ATP, MgCl2, DTT, EDTA, MOPS and CHAPS were purchased from SigmaAldrich (St. Louis, Mo.).
The kinase reaction was conducted in polystyrene 384-well Greiner Bio-one white plate from Thermo Fisher Scientific in a final volume of 25 μL. Inhibitors were first diluted serially in DMSO and added to the plate wells before the addition of other reaction components. The final concentration of DMSO in the assay was 2%. The PI3Kγ assay was carried out at room temperature in 20 mM MOPS, pH 6.7, 10 mM MgCl2, 5 mM DTT and CHAPS 0.03%. Reactions were initiated by the addition of ATP, the final reaction mixture consisted of 20 μM PIP2, 2 μM ATP, 0.5 μCi [γ-^33P] ATP, 13 nM PI3Kγ. Reactions were incubated for 120 min and terminated by the addition of 40 μL SPA beads suspended in quench buffer: 163 mM potassium phosphate pH 7.8, 20% glycerol, 25 mM EDTA. The final concentration of SPA beads is 1.0 mg/mL. After the plate sealing, plates were shaken overnight at room temperature and centrifuged at 1500 rpm for 10 min, the radioactivity of the product was determined by scintillation counting on Topcount (Perkin-Elmer). IC50 determination was performed by fitting the curve of percent of the solvent control activity versus the log of the inhibitor concentration using the GraphPad Prism 6.0 software.

[4] = THP-1 cells, serum starved, 2 h compound, 10 nM MCP-1 for 15 min, phospho-RPS6 ELISA, read-out: PI3Kγ_THP1_RPS6_ELISA IC50
[5] = Homo sapiens, THP-1, THP-1 cells, serum starved, 2 h compound, 10 nM MCP-1 for 15 min, phospho-RPS6 ELISA, read-out: PI3Kγ_THP1_RPS6_ELISA IC50
[6] = Homo sapiens, THP-1, read-out: PI3Kγ_THP1_RPS6_ELISA IC50 (nM)

Chain of PI3Kγ (p110γ) Recombinant Human Protein (P48736 whole entry): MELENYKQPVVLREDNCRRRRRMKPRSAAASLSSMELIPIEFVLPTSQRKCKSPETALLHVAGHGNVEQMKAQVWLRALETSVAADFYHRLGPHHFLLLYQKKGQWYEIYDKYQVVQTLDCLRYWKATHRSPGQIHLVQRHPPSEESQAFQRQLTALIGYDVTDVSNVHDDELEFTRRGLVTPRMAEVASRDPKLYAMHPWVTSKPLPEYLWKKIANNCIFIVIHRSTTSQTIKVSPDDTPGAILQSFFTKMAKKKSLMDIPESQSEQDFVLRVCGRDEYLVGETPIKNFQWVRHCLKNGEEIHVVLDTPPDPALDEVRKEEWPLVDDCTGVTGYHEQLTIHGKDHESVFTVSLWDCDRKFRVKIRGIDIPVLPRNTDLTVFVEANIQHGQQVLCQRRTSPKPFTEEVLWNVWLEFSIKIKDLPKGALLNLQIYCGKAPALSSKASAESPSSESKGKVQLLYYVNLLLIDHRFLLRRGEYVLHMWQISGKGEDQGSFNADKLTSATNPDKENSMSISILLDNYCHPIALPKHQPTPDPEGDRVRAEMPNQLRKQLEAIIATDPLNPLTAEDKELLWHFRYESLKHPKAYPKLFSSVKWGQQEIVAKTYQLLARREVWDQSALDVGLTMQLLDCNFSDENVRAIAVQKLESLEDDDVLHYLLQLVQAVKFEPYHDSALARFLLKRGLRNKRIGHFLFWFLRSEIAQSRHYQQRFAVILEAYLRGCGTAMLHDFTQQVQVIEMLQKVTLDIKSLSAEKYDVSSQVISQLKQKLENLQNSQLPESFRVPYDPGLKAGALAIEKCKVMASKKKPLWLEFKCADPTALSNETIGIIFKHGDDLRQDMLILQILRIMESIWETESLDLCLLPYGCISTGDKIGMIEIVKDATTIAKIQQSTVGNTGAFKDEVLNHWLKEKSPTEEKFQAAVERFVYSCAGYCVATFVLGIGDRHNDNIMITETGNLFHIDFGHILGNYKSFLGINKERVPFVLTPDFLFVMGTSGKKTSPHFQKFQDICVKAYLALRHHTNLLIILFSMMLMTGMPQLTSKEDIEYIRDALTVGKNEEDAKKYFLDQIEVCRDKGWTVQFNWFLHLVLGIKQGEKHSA
Chain of PI3Kδ (p110δ/p85α) Recombinant Human Protein (O00329 whole entry): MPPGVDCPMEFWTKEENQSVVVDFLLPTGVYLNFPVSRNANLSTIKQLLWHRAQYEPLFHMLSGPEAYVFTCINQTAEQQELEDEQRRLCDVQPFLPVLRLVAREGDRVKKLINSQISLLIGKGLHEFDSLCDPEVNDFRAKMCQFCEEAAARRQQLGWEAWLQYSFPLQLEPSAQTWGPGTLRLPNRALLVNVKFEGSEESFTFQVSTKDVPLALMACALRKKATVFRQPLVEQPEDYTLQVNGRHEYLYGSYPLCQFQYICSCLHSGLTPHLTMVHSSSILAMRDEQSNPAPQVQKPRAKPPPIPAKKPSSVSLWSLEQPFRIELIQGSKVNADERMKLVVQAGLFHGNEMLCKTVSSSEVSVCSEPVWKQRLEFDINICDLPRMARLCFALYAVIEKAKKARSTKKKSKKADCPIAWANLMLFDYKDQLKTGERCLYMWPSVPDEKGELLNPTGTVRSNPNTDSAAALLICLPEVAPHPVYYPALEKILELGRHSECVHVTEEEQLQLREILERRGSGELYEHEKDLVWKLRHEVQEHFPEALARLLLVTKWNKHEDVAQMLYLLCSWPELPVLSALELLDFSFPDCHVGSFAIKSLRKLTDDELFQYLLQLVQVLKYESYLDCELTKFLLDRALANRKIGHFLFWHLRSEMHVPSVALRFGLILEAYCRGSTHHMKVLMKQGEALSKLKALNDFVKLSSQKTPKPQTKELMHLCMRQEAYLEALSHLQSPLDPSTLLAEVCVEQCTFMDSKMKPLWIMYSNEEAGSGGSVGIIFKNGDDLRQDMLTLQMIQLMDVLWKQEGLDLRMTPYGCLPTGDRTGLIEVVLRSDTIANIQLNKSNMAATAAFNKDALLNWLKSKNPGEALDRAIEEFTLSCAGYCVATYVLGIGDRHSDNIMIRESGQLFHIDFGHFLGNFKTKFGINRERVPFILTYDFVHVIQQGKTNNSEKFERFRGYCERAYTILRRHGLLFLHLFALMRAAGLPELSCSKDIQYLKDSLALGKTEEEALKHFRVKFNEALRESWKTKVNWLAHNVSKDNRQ
Chain of PI3Kδ (p110δ/p85α) Recombinant Human Protein (P27986 whole entry partner): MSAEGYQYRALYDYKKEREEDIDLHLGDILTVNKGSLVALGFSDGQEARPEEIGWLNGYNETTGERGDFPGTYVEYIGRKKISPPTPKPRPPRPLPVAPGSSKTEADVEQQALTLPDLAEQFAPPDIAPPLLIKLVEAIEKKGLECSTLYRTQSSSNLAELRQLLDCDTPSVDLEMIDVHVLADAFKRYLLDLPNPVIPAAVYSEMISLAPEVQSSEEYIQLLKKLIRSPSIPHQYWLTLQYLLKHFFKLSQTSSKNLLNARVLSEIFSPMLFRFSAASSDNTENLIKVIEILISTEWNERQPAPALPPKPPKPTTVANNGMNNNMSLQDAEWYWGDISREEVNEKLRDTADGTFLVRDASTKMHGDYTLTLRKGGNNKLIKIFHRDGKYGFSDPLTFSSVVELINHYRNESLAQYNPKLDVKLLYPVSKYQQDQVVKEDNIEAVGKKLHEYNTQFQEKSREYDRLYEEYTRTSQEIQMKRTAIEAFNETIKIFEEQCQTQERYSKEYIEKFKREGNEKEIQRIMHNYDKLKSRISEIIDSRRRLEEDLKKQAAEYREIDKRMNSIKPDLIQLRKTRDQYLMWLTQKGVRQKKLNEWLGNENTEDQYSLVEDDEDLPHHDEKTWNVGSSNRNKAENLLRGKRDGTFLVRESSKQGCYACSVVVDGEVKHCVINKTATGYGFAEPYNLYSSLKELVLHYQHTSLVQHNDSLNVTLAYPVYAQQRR

Row | Compound | IC50 [1, 4] | IC50 [2] | IC50 [3] | IC50 [1, 5] | IC50 [1, 6]
1 | 2-(3-(8-Amino-6-(3-methyl-1H-pyrazol-4-yl)imidazo[1,2-a]pyrazin-3-yl)-4-methylphenyl)-1,1-difluoropropan-2-ol, 1.2TFA [Example 47] | < 100 nM | < 100 nM | < 100 nM |  | 
2 | Cc1ccc(C(C)(O)CF)cc1-c1cnc2c(N)nc(C(F)(F)F)cn12 (racemic) [Example 24, 2-(3-(8-Amino-6-(trifluoromethyl)imidazo[1,2-a]pyrazin-3-yl)-4-methylphenyl)-1-fluoropropan-2-ol trifluoroacetate salt] |  | 500 to 2000 nM | < 100 nM | 500 to 1000 nM | 
3 | Cc1ncc(-c2cn3c(-c4cc(C(O)(CO)C(F)(F)F)ccc4C)cnc3c(N)n2)s1 (racemic) [Example 70, 2-(3-(8-Amino-6-(2-methylthiazol-5-yl)imidazo[1,2-a]pyrazin-3-yl)-4-methylphenyl)-3,3,3-trifluoropropane-1,2-diol trifluoroacetate salt] |  |  |  |  | < 100 nM
4 | Cc1ccc(C(O)(CO)C(F)(F)F)cc1-c1cnc2c(N)nc(-c3cnco3)cn12 (racemic) [Example 71, 2-(3-(8-Amino-6-(oxazol-5-yl)imidazo[1,2-a]pyrazin-3-yl)-4-methylphenyl)-3,3,3-trifluoropropane-1,2-diol trifluoroacetate salt] |  |  |  |  | < 100 nM
5 | Cc1ccc(C(C)(O)C(F)(F)F)cc1-c1cnc2c(N)nc(C(F)(F)F)cn12 (single isomer, unassigned) [Example 5, 2-(3-(8-Amino-6-(trifluoromethyl)imidazo[1,2-a]pyrazin-3-yl)-4-methylphenyl)-1,1,1-trifluoropropan-2-ol] | 500 to 1000 nM | 100 to 500 nM | < 100 nM |  | 
6 | Cc1ccc(C(C)(O)C(F)(F)F)cc1-c1cnc2c(N)nc(C(F)(F)F)cn12 (single isomer, unassigned) [Example 6, 2-(3-(8-Amino-6-(trifluoromethyl)imidazo[1,2-a]pyrazin-3-yl)-4-methylphenyl)-1,1,1-trifluoropropan-2-ol] | 100 to 500 nM | 100 to 500 nM | < 100 nM |  | 
7 | Cc1ccc(C(C)(O)C(F)(F)F)cc1-c1cnc2c(N)nc(-c3ccnc(CO)c3)cn12 (single isomer, unassigned) [Example 11, 2-(3-(8-amino-6-(2-(hydroxymethyl)pyridin-4-yl)imidazo[1,2-a]pyrazin-3-yl)-4-methylphenyl)-1,1,1-trifluoropropan-2-ol] |  | < 100 nM | < 100 nM | 100 to 500 nM | 
8 | Cc1ccc(C(C)(O)C(F)(F)F)cc1-c1cnc2c(N)nc(-c3ccnc(CO)c3)cn12 (single isomer, unassigned) [Example 12, 2-(3-(8-amino-6-(2-(hydroxymethyl)pyridin-4-yl)imidazo[1,2-a]pyrazin-3-yl)-4-methylphenyl)-1,1,1-trifluoropropan-2-ol] | < 100 nM | < 100 nM | < 100 nM |  | 
9 | CNCCC(O)(c1ccc(C)c(-c2cnc3c(N)nc(C(F)(F)F)cn23)c1)C(F)(F)F (single isomer, unassigned) [Example 15, 2-(3-(8-Amino-6-(trifluoromethyl)imidazo[1,2-a]pyrazin-3-yl)-4-methylphenyl)-1,1,1-trifluoro-4-(methylamino)butan-2-ol] | 100 to 500 nM | 100 to 500 nM | < 100 nM |  | 
10 | CNCCC(O)(c1ccc(C)c(-c2cnc3c(N)nc(C(F)(F)F)cn23)c1)C(F)(F)F (single isomer, unassigned) [Example 16, 2-(3-(8-Amino-6-(trifluoromethyl)imidazo[1,2-a]pyrazin-3-yl)-4-methylphenyl)-1,1,1-trifluoro-4-(methylamino)butan-2-ol] | 500 to 1000 nM | 100 to 500 nM | < 100 nM |  | 
11 | [2H]C([2H])([2H])n1nccc1-c1cn2c(-c3cc(C(C)(O)C(F)F)ccc3C)cnc2c(N)n1 (single isomer, unassigned) [Example 25, 2-(3-(8-Amino-6-(1-(methyl-d3)-1H-pyrazol-5-yl)imidazo[1,2-a]pyrazin-3-yl)-4-methylphenyl)-1,1-difluoropropan-2-ol trifluoroacetate salt] |  | 100 to 500 nM | < 100 nM | 100 to 500 nM | 
12 | Cc1ccc(C(C)(O)C(F)F)cc1-c1cnc2c(N)nc(C(F)(F)F)cn12 (single isomer, unassigned) [Example 26, 2-(3-(8-Amino-6-(trifluoromethyl)imidazo[1,2-a]pyrazin-3-yl)-4-methylphenyl)-1,1-difluoropropan-2-ol] | 500 to 1000 nM | 500 to 2000 nM | < 100 nM |  | 
13 | Cc1ccc(C(C)(O)C(F)F)cc1-c1cnc2c(N)nc(C(F)(F)F)cn12 (single isomer, unassigned) [Example 27, 2-(3-(8-Amino-6-(trifluoromethyl)imidazo[1,2-a]pyrazin-3-yl)-4-methylphenyl)-1,1-difluoropropan-2-ol] | 100 to 500 nM | 100 to 500 nM | < 100 nM |  | 
14 | Cc1ccc(C(C)(O)C(F)F)cc1-c1cnc2c(N)nc(-c3ccnn3C)cn12 (single isomer, unassigned) [Example 29, 2-(3-(8-Amino-6-(1-methyl-1H-pyrazol-5-yl)imidazo[1,2-a]pyrazin-3-yl)-4-methylphenyl)-1,1-difluoropropan-2-ol 1.2 trifluoroacetate salt] |  | 100 to 500 nM | < 100 nM | 100 to 500 nM | 
15 | Cc1ccc(C(O)(C(N)=O)C(F)(F)F)cc1-c1cnc2c(N)nc(C(C)(C)O)cn12 (single isomer, unassigned) [Example 255, 2-(3-(8-Amino-6-(2-hydroxypropan-2-yl)imidazo[1,2-a]pyrazin-3-yl)-4-methylphenyl)-3,3,3-trifluoro-2-hydroxypropanamide trifluoroacetate salt] |  |  |  | < 100 nM | 
16 | Cc1ccc(C(O)(C(N)=O)C(F)(F)F)cc1-c1cnc2c(N)nc(C(=O)NC34CCC(O)(CC3)C4)cn12 (single isomer, unassigned) [Example 260, 8-Amino-3-(5-(3-amino-1,1,1-trifluoro-2-hydroxy-3-oxopropan-2-yl)-2-methylphenyl)-N-(4-hydroxybicyclo[2.2.1]heptan-1-yl)imidazo[1,2-a]pyrazine-6-carboxamide trifluoroacetate salt] |  |  |  | 500 to 1000 nM | 
